In the PolyMetriX glass transition set:
± gives the standard deviation of the reports.

*CCN(CCN1C(=O)c2ccc(C(c3ccc4c(c3)C(=O)N(*)C4=O)(C(F)(F)F)C(F)(F)F)cc2C1=O)c1ccc(/N=N/c2ccc(C=O)cc2)cc1 (repeat unit)
glass transition temperature: 170.00 °C

*OP(=O)(Oc1ccc(-c2ccc(*)cc2)cc1)OC1CCCCC1 (repeat unit)
glass transition temperature: 116.00 °C

*CCC(*)=O (repeat unit)
glass transition temperature: 15.00 °C

*c1cccc(OCCCCOc2cccc(N3C(=O)c4ccc(-c5cccc6c5C(=O)N(*)C6=O)cc4C3=O)c2)c1 (repeat unit)
glass transition temperature: 178.00 °C

*c1cccc(C(=O)Nc2ccc(Oc3ccc(Oc4ccc(Oc5ccc(NC(=O)c6cccc(N7C(=O)c8ccc(-c9ccc%10c(c9)C(=O)N(*)C%10=O)cc8C7=O)c6)cc5)cc4)cc3)cc2)c1 (repeat unit)
glass transition temperature: 244.00 °C

*C(=O)Nc1ccc(Oc2ccc(NC(=O)c3ccc4c(c3)C(=O)N(c3ccc(-c5sc(-c6ccc(N7C(=O)c8ccc(*)cc8C7=O)cc6)c(-c6ccccc6)c5-c5ccccc5)cc3)C4=O)cc2)cc1 (repeat unit)
glass transition temperature: 320.00 °C

*c1ccc(OC(=O)c2ccc(C(=O)Oc3ccc(C4(*)c5ccccc5C(=O)N4C)cc3)cc2)cc1 (repeat unit)
glass transition temperature: 282.00 °C

*CC(*)C(=O)OC(C)CC (repeat unit) [Poly(sec-butyl acrylate)]
glass transition temperature: -20 ± 1.8 °C

*CC(*)C(=O)OCCSCC (repeat unit)
glass transition temperature: -71.00 °C

*CCCCCCCOC(=O)c1ccc(-c2ccc(C(=O)O*)cc2)cc1 (repeat unit)
glass transition temperature: 44.00 °C

*CC(*)(C)C(=O)Oc1cc(C)cc(C)c1 (repeat unit)
glass transition temperature: 106.00 °C

*CC(*)(C)C(=O)OCC(C)Oc1ccc(-c2ccc(-c3ccc(C#N)cc3)cc2)cc1 (repeat unit)
glass transition temperature: 140.00 °C

*Oc1cccc(Oc2cccc(NC(=O)c3cc(Oc4ccc(C(=O)O)c(C(=O)Nc5cccc(*)c5)c4)ccc3C(=O)O)c2)c1 (repeat unit)
glass transition temperature: 176.40 °C

*Oc1ccc(NC(=O)NC2CC(C)(C)CC(C)(CNC(=O)Nc3ccc(*)cc3)C2)cc1 (repeat unit)
glass transition temperature: 274.00 °C

*CC(*)(C)C(=O)OCSC (repeat unit)
glass transition temperature: 60.00 °C

*CCS* (repeat unit) [Poly(ethylene sulfide)]
glass transition temperature: -25.83 ± 34 °C

*Oc1ccc(Oc2ccc(OC(=O)NC(=O)c3cc(C(=O)NC(*)=O)cc(C(C)(C)C)c3)cc2)cc1 (repeat unit)
glass transition temperature: 114.50 °C

*c1cccc(P(=O)(c2ccc(C(F)(F)F)cc2)c2cccc(-n3c(=O)c4c(-c5cc(C(F)(F)F)cc(C(F)(F)F)c5)c5c(=O)n(*)c(=O)c5c(-c5cc(C(F)(F)F)cc(C(F)(F)F)c5)c4c3=O)c2)c1 (repeat unit)
glass transition temperature: 311.00 °C

*c1ccc(Oc2ccc(-c3nc4cc(Oc5ccc(NC(=O)CN6C(=O)c7ccc(C(c8ccc9c(c8)C(=O)N(CC(=O)Nc8ccc(Oc%10ccc%11nc(-c%12ccccc%12)c(*)nc%11c%10)cc8)C9=O)(C(F)(F)F)C(F)(F)F)cc7C6=O)cc5)ccc4nc3-c3ccccc3)cc2)cc1 (repeat unit)
glass transition temperature: 260.00 °C

*c1ccc(-c2ccc(-c3cc(-c4ccccc4)c4cc(C5(c6ccc7nc(*)cc(-c8ccccc8)c7c6)c6ccccc6-c6ccccc65)ccc4n3)cc2)cc1 (repeat unit)
glass transition temperature: 380.00 °C

*CCCCCCCCCCN1C(=O)c2ccc(-c3ccc(-c4ccc5c(c4)C(=O)N(*)C5=O)cc3)cc2C1=O (repeat unit)
glass transition temperature: 103.00 °C

*CCN(*)C(=O)c1c(F)cc(F)c(F)c1F (repeat unit)
glass transition temperature: 122.00 °C

*CC(*)(C)C(=O)OCc1ccsc1 (repeat unit)
glass transition temperature: 83.50 °C

*CCCCCCCCOc1c(OC)cc(/C=C/c2cc(CCCCCC)c(/C=C/c3cc(OC)c(O*)c(OC)c3)cc2CCCCCC)cc1OC (repeat unit)
glass transition temperature: 21.00 °C

*/C=C/CCCCCCC(Cl)CCCCCC* (repeat unit)
glass transition temperature: -57.00 °C

*c1ccc(Oc2ccc(S(=O)(=O)c3ccc(Oc4ccc(-c5c6c(c(*)c7ccccc57)C(=O)N(C)C6=O)cc4)cc3)cc2)cc1 (repeat unit)
glass transition temperature: 314.00 °C

*CC(*)(C)C(=O)O (repeat unit)
glass transition temperature: 161.70 °C

*c1ccc(Oc2ccc(-c3cnc4ccc(-c5ccc6nc(*)cnc6c5)cc4n3)cc2)cc1 (repeat unit)
glass transition temperature: 280.00 °C

*CCCCCCCCCCOc1ccc(/C=C2\CCC/C(=C\c3ccc(O*)c(OC)c3)C2=O)cc1OC (repeat unit)
glass transition temperature: 60.00 °C

*C(=O)Nc1ccc(-c2cc(-c3ccccc3)cc(-c3ccc(NC(=O)c4ccc5c(c4)C(=O)N(c4cccc(P(=O)(c6ccccc6)c6cccc(N7C(=O)c8ccc(*)cc8C7=O)c6)c4)C5=O)cc3)n2)cc1 (repeat unit)
glass transition temperature: 258.00 °C

*C(=O)c1ccc2c(c1)C(=O)N(c1cccc(P(=O)(c3ccc(C(F)(F)F)cc3)c3cccc(N4C(=O)c5ccc(*)cc5C4=O)c3)c1)C2=O (repeat unit)
glass transition temperature: 264.00 °C

*OP(=O)(Oc1ccc(Br)cc1)Oc1c(Br)cc(C(c2cc(Br)c(*)c(Br)c2)(C(F)(F)F)C(F)(F)F)cc1Br (repeat unit)
glass transition temperature: 152.00 °C

*CCC1CC(OC(=O)CCCCCCCCCCOc2ccc(-c3ccc(C#N)cc3)cc2)CC1* (repeat unit)
glass transition temperature: 24.00 °C

*CC(O)COc1ccc(C(=O)c2ccc(OCC(O)COc3ccc(C(C)(C)c4ccc(O*)cc4)cc3)cc2)cc1 (repeat unit)
glass transition temperature: 120.00 °C

*c1ccc(C2(c3ccc(N4C(=O)c5ccc(-c6ccc7c(c6)C(=O)N(*)C7=O)cc5C4=O)cc3)c3ccccc3-c3ccccc32)cc1 (repeat unit)
glass transition temperature: 388.00 °C

*CC(*)c1ccc(Cl)c([N+](=O)[O-])c1 (repeat unit)
glass transition temperature: 132.90 °C

*CC(*)(C)C(=O)OCCC(C)CC(C)(C)C (repeat unit)
glass transition temperature: 1.00 °C

*c1ccc(NC(=O)c2ccc(OCCOCCOc3ccc(C(=O)Nc4ccc5[nH]c(*)nc5c4)cc3)cc2)cc1 (repeat unit)
glass transition temperature: 175.00 °C

*c1ccc(N(c2ccc(C#N)cc2)c2ccc(N3C(=O)c4ccc(Oc5ccc(C(c6ccc(Oc7ccc8c(c7)C(=O)N(*)C8=O)cc6)(C(F)(F)F)C(F)(F)F)cc5)cc4C3=O)cc2)cc1 (repeat unit)
glass transition temperature: 234.00 °C

*c1cccc(P(=O)(c2ccc(Oc3ccc(C45CC6CC(CC(C6)C4)C5)cc3)cc2)c2cccc(-n3c(=O)c4cc5c(=O)n(*)c(=O)c5cc4c3=O)c2)c1 (repeat unit)
glass transition temperature: 330.00 °C

*c1cccc(-n2nc(-c3ccccc3)c3cc(Oc4ccc(C(C)(C)c5ccc(Oc6ccc7c(-c8ccccc8)nn(*)c(=O)c7c6)cc5)cc4)ccc3c2=O)c1C#N (repeat unit)
glass transition temperature: 200.00 °C

*c1ccc(Oc2ccc(Oc3ccc(Oc4ccc(-c5nc(*)nc(-c6ccccc6)n5)cc4)cc3)cc2)cc1 (repeat unit)
glass transition temperature: 203.00 °C

*c1cccc(P(=O)(c2cccc(-n3c(=O)c4c(-c5ccccc5)c5c(=O)n(*)c(=O)c5c(-c5ccccc5)c4c3=O)c2)c2cc(C(F)(F)F)cc(C(F)(F)F)c2)c1 (repeat unit)
glass transition temperature: 320.00 °C

*CCOCCOCCOCCOC(=O)Nc1ccc(Cc2ccc(NC(=O)O*)cc2)cc1 (repeat unit)
glass transition temperature: 37.00 °C
